Test results taken from patent publication US10118918B2, “PRMT5 inhibitors and uses thereof” (Epizyme, Inc., priority 2012, dated 2018).

test system: symmetric di-methyl arginine in Z-138 cells; assay: Z-138 Methylation Assay (In Cell Western for symmetric di-methyl arginine and DNA content); format: cell-based; conditions: 96 hours incubation, read-out: ICW EC50
Excerpt: [formula] Where top and bottom are the normally allowed to float, but may be fixed at 100 or 0 respectively in a 3-parameter fit. The Hill Coefficient normally allowed to float but may also be fixed at 1 in a 3-parameter fit. Y is the % inhibition and X is the compound concentration. Z-138 Methylation Assay
Z-138 suspension cells were purchased from ATCC (American Type Culture Collection, Manassas, Va.). RPMI/Glutamax medium, penicillin-streptomycin, heat inactivated fetal bovine serum, and D-PBS were purchased from Life Technologies, Grand Island, N.Y., USA. Odyssey blocking buffer, 800CW goat anti-rabbit IgG (H+L) antibody, and Licor Odyssey infrared scanner were purchased from Licor Biosciences, Lincoln, Nebr., USA. Symmetric di-methyl arginine antibody was purchased from EMD Millipore, Billerica, Mass., USA. 16% Paraformaldehyde was purchased from Electron Microscopy Sciences, Hatfield, Pa., USA.
Z-138 suspension cells were maintained in growth medium (RPMI 1640 supplemented with 10% v/v heat inactivated fetal bovine serum and 100 units/mL penicillin-streptomycin) and cultured at 37° C. under 5% CO2.
Cell Treatment, in Cell Western (ICW) for Detection of Symmetric Di-Methyl Arginine and DNA Content.
Z-138 cells were seeded in assay medium at a concentration of 50,000 cells per mL to a 384-well cell culture plate with 50 μL per well. Compound (100 nL) from 384 well source plates was added directly to 384 well cell plate. Plates were incubated at 37° C., 5% CO2 for 96 hours. After four days of incubation, 40 μL of cells from incubated plates were added to poly-D-lysine coated 384 well culture plates (BD Biosciences 356697). Plates were incubated at room temperature for 30 minutes then incubated at 37° C., 5% CO2 for 5 hours. After the incubation, 40 μL per well of 8% paraformaldehyde in PBS (16% paraformaldahyde was diluted to 8% in PBS) was added to each plate and incubated for 30 minutes. Plates were transferred to a Biotek 405 plate washer and washed 5 times with 100 μL per well of wash buffer (IX PBS with 0.1% Triton X-100 (v/v)). Next 30 μL per well of Odyssey blocking buffer were added to each plate and incubated 1 hour at room temperature. Blocking buffer was removed and 20 μL per well of primary antibody was added (symmetric di-methyl arginine diluted 1:100 in Odyssey buffer with 0.1% Tween 20 (v/v)) and plates were incubated overnight (16 hours) at 4° C. Plates were washed 5 times with 100 μL per well of wash buffer. Next 20 μL per well of secondary antibody was added (1:200 800CW goat anti-rabbit IgG (H+L) antibody, 1:1000 DRAQ5 (Biostatus limited) in Odyssey buffer with 0.1% Tween 20 (v/v)) and incubated for 1 hour at room temperature. The plates were washed 5 times with 100 μL per well wash buffer then 1 time with 100 μL per well of water. Plates were allowed to dry at room temperature then imaged on the Licor Odyssey machine which measures integrated intensity at 700 nm and 800 nm wavelengths. Both 700 and 800 channels were scanned.
First, the ratio for each well was determined by:
Each plate included fourteen control wells of DMSO only treatment (minimum inhibition) as well as fourteen control wells for maximum inhibition treated with 3 μM of a reference compound (Background wells). The average of the ratio values for each control type was calculated and used to determine the percent inhibition for each test well in the plate. Reference compound was serially diluted three-fold in DMSO for a total of nine test concentrations, beginning at 3 μM. Percent inhibition was determined and IC50 curves were generated using triplicate wells per concentration of compound. […]

Row | EC50 [nM] | Compound
1 | 101 to 1000 | N-(2-hydroxy-3-(isoindolin-2-yl)propyl)-2-((4-methyl-3,4-dihydro-2H-benzo[b][1,4]oxazin-5-yl)oxy)acetamide [compound 10]

same assay, conditions: Homo sapiens, 96 hours incubation, read-out: ICW EC50

Row | EC50 [nM] | Compound
2 | > 1000 | CC(=O)N1CCC(Nc2cc(C(=O)NC[C@H](O)CN3CCc4ccccc43)ccn2)CC1 [compound 44]
3 | > 1000 | CC(=O)N1CCC(Nc2cc(C(=O)NC[C@H](O)CN3CCCc4ccccc4C3)ncn2)CC1 [compound 50]
4 | > 1000 | CC(=O)N1CCC(Nc2cc(C(=O)NC[C@H](O)CN3CCCCc4ccccc43)ncn2)CC1 [compound 47]
5 | > 1000 | O=C(NC[C@H](O)CN1CCCc2ccccc2C1)c1cc(NC2COC2)ncn1 [compound 48]
6 | > 1000 | CC(=O)N1CCC(Nc2cc(C(=O)NC[C@H](O)CN3CCc4ccccc43)ncn2)CC1 [compound 43]
7 | 101 to 1000 | O=C(NC[C@H](O)CN1Cc2ccccc2C1)c1cc(NC2COC2)nc(C(F)(F)F)n1 [compound 36]
8 | > 1000 | O=C(NC[C@H](O)CN1CCc2ccccc21)c1cc(NC2COC2)ncn1 [compound 42]
9 | < 100 | O=C(NC[C@H](O)CN1Cc2ccccc2C1)c1cc(NC2COC2)nc(N2CCOCC2)n1 [compound 38]
10 | 101 to 1000 | O=C(CCc1nc2ccccc2[nH]1)NCC(O)CN1Cc2ccccc2C1 (stereo not shown) [compound 37]
11 | > 1000 | CC(=O)N1CC(Nc2cc(C(=O)NC[C@H](O)CN3CCCCc4ccccc43)ncn2)C1 [compound 46]
12 | > 1000 | O=C(NC[C@H](O)CN1CCCCc2ccccc21)c1cc(NC2COC2)ncn1 [compound 45]
13 | < 100 | CC(=O)N1CCC(Nc2cc(C(=O)NC[C@H](O)CN3Cc4ccccc4C3)ccn2)CC1 [compound 40]
14 | > 1000 | Cc1nc(NC2COC2)cc(C(=O)NC[C@H](O)CN2Cc3ccccc3C2)n1 [compound 35]
15 | > 1000 | CC(=O)N1CC(Nc2cc(C(=O)NC[C@H](O)CN3CCCc4ccccc4C3)ncn2)C1 [compound 49]

Row | Compound | EC50 [nM]
16 | O=C(NC[C@H](O)CN1Cc2ccccc2C1)c1cccc(NC2CCOCC2)c1 [compound 28] | 101 to 1000
17 | C[C@@H](Oc1cccc2cccnc12)C(=O)NC[C@H](O)CN1Cc2ccccc2C1 [compound 5, (R)—N—((S)-2-hydroxy-3-(isoindolin-2-yl)propyl)-2-(quinolin-8-yloxy)propanamide] | 101 to 1000
18 | O=C(NCC(O)CN1Cc2ccccc2C1)c1cccc(-c2ccccn2)c1 (stereo not shown) [compound 13, N-(2-hydroxy-3-(isoindolin-2-yl)propyl)-3-(pyridin-2-yl)benzamide] | 1000 to 10000
19 | CN(C)S(=O)(=O)c1ccccc1OCC(=O)NCC(O)CN1Cc2ccccc2C1 (stereo not shown) [compound 15, 2-(2-(N,N-dimethylsulfamoyl)phenoxy)-N-(2-hydroxy-3-(isoindolin-2-yl)propyl)acetamide] | 101 to 1000
20 | O=C(COc1ccccc1-c1cc[nH]n1)NCC(O)CN1Cc2ccccc2C1 (stereo not shown) [compound 7] | 101 to 1000
21 | O=C(NC[C@H](O)CN1Cc2ccccc2C1)c1cc(NC2CCOCC2)ncn1 [compound 29] | 101 to 1000
22 | O=C(COc1cccc2cccnc12)NCC(O)CN1Cc2ccccc2C1 (stereo not shown) [compound 19, N-(2-hydroxy-3-(isoindolin-2-yl)propyl)-2-(quinolin-8-yloxy)acetamide] | 1000 to 10000
